Measured values reported in publication PMC9217576, “Urease and α-Chymotrypsin Inhibitory Activities and Molecular Docking Studies of Alkaloids Isolated from Medicinal Plant Isatis minima Bunge” (Evidence-based Complementary and Alternative Medicine : eCAM, 2022).
Like-named read-outs stand apart in the source and are kept apart here.

Tests used:
Type in all cases: biochemical
[1] = target: Bacillus pasteurii urease (Sporosarcina pasteurii, UniProt P41020); assay: In vitro urease inhibition assay (indophenol method); conditions: for IC50: SEM of five determinations, pH 6.8, 30°C
Chain of Bacillus pasteurii urease (P41022 whole entry): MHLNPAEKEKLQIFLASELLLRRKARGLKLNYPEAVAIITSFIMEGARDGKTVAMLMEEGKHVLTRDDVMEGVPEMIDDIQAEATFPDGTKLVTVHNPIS
Chain of Bacillus pasteurii urease (P41020 whole entry): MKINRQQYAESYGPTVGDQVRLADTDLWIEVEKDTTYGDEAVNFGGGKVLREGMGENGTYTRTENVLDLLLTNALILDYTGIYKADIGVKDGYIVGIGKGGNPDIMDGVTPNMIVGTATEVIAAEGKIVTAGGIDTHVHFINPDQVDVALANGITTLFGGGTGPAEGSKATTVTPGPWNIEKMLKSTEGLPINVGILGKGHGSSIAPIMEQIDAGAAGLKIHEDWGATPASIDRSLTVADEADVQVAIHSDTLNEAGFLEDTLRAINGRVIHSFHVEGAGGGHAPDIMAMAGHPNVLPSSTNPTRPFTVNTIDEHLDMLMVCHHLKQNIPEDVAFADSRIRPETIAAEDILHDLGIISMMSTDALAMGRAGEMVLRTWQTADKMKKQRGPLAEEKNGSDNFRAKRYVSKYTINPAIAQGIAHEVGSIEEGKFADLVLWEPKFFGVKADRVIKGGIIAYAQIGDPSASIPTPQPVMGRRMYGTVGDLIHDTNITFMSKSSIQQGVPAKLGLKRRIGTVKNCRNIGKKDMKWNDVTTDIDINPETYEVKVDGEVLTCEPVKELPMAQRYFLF
Chain of Bacillus pasteurii urease (P41021 whole entry, further chain): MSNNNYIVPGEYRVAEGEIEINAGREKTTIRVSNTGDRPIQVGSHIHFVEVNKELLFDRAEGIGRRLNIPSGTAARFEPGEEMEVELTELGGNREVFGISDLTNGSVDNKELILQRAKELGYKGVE

Jack bean urease = Jack bean urease (Canavalia ensiformis, UniProt P07374); assay: biochemical; conditions: for IC50: SEM of five determinations, pH 6.8, 30°C
Chain of Jack bean urease (P07374 whole entry, looked up): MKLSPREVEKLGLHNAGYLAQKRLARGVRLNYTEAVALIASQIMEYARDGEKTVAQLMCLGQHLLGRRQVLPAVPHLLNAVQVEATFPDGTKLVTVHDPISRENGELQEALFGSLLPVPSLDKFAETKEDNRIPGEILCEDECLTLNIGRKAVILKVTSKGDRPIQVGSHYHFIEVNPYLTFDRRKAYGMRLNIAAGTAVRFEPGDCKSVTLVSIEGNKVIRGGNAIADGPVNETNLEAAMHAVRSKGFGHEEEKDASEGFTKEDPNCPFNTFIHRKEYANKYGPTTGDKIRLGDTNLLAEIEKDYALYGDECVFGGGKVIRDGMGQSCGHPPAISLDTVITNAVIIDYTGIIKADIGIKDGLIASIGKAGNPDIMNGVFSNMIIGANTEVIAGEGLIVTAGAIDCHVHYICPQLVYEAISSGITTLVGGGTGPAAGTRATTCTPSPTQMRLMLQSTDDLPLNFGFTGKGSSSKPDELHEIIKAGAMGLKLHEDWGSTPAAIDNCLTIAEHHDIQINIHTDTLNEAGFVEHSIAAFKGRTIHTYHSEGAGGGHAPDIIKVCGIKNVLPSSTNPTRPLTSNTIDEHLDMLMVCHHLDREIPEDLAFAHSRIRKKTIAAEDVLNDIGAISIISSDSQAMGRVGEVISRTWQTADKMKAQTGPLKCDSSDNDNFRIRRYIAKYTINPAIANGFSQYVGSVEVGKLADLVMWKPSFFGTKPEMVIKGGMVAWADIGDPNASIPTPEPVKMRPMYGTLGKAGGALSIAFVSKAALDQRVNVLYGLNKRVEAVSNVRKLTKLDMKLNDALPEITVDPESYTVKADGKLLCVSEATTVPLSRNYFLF

α-chymotrypsin = α-chymotrypsin (Bos taurus, UniProt P00766); assay: In vitro chymotrypsin inhibition assay; conditions: for IC50: SEM of five determinations, Tris-HCl pH 7.6, 25°C
[2] = read-out: Urease IC50 ± SEM (Bacillus pasteurii urease)
[3] = Urease IC50 ± SEM (Jack bean urease)
[4] = Urease IC50 ± SEM (Bacillus pasteurii urease)

| SMILES | inhibitory activity against Bacillus pasteurii urease (in words) [1] | IC50 [1, 2] [µM] | inhibitory activity against Jack bean urease (in words) (Jack bean urease) | IC50 (Jack bean urease; [3]) [µM] | inhibitory potential against α-chymotrypsin (in words) (α-chymotrypsin) | IC50 (α-chymotrypsin) [µM] | IC50 [1, 4] [µM] | IC50 (Jack bean urease; read-out: Urease IC50 ± SEM (Jack bean urease)) [µM] |
| --- | --- | --- | --- | --- | --- | --- | --- | --- |
| O=C1C(c2[nH]c3ccccc3c2C2=c3ccccc3=N/C2=C2\Nc3ccccc3C2=O)=Nc2ccccc21 [Bisindigotin] | significant inhibitory activity | 42.04 ± 0.07 | significant inhibitory activity | 58.15 ± 0.02 | moderate inhibitory potential | 34.01 ± 0.07 |  |  |
| O=C1/C(=c2\c3ccccc3n3c(=O)c4ccccc4nc23)Nc2ccccc21 [Candidine] | significant inhibitory activity |  |  |  | moderate inhibitory potential | 44.07 ± 0.04 | 46.12 ± 0.05 |  |
| COc1cc(C2c3c(c4ccccc4[nH]c3=O)C(=O)N3CCCC23)cc(OC)c1O (stereo not shown) [Isaindigotidione] |  | 20.04 ± 0.09 |  | 29.03 ± 0.04 |  | 16.09 ± 0.07 |  |  |
| COc1cc(/C=C2\CCn3c2nc2ccccc2c3=O)cc(OC)c1O [Isaindigotone] |  | 26.13 ± 0.08 |  | 34.03 ± 0.07 |  | 22.01 ± 0.06 | 29.03 ± 0.04 |  |
| NC(N)=S [Thiourea, reference compound] |  | 14.03 ± 0.08 |  |  |  |  |  | 18.04 ± 0.01 |
